# Reference: ChEMBL document CHEMBL1201862, “PubChem BioAssay data set” (2004)
#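 1) Cells in 96-well plates. 2) Compound, 48 h, 5 concentrations. 3) Linear interpolation between surrounding doses. 4) Unreached endpoint = highest concentration. GI50 marks 50% less growth.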 Activity calls are given as the source filed them. Rule as the data show it: active = GI50 up to about 1.1 µM and inactive = higher.
# What was measured:
# Experiment in all cases: DTP human tumour cell line panel, 48 h
# [1] = tested on: CAKI-1
# [2] = tested on: SF-268
# [3] = tested on: MDA-MB-231
# [4] = tested on: HOP-92
# [5] = tested on: Malme-3M
# [6] = tested on: DU-145
# [7] = tested on: ACHN
# [8] = tested on: HT-29
# [9] = tested on: RXF 393
# [10] = tested on: MDA-MB-435
# [11] = tested on: EKVX
# [12] = tested on: HOP-62
# [13] = tested on: COLO 205
# [14] = tested on: OVCAR-3
# [15] = tested on: U-251
# [16] = tested on: HCT-15
# [17] = tested on: T47D
# [18] = tested on: A498
# [19] = tested on: SNB-75
# [20] = tested on: NCI-H226
# [21] = tested on: UACC-257
# [22] = tested on: NCI-H23
# [23] = tested on: KM12
# [24] = tested on: 786-0
# [25] = tested on: RPMI-8226
# [26] = tested on: SK-MEL-5
# [27] = tested on: OVCAR-8
# [28] = tested on: NCI-H522
# [29] = tested on: LOX IMVI
# [30] = tested on: SK-OV-3
# [31] = tested on: OVCAR-5
# [32] = tested on: SF-539
# [33] = tested on: SK-MEL-28
# [34] = tested on: SF-295
# [35] = tested on: SN12C
# [36] = tested on: TK-10
# [37] = tested on: SW-620
# [38] = tested on: BT-549
# [39] = tested on: OVCAR-4
# [40] = tested on: HCT-116
# [41] = tested on: NCI/ADR-RES
# [42] = tested on: MOLT-4
# [43] = tested on: NCI-H460
# [44] = tested on: UO-31
# [45] = tested on: SNB-19
# [46] = tested on: PC-3
# [47] = tested on: CCRF-CEM
# [48] = tested on: MCF7
# [49] = tested on: MDA-N
# [50] = tested on: SK-MEL-2
# [51] = tested on: A549
# [52] = tested on: HCC 2998
# [53] = tested on: IGROV-1
# [54] = tested on: UACC-62
# [55] = tested on: M14
# [56] = tested on: SR
smiles,measurement,setting,value
Cc1cc2nc3c(C#N)c4c(c(Nc5ccc(Cl)cc5)n3c2cc1C)CCC4,GI50,[1],20.5 µM (inactive)
same,GI50,[2],18.4 µM (inactive)
same,GI50,[3],20.8 µM (inactive)
same,GI50,[4],23.6 µM (inactive)
same,GI50,[5],23.8 µM (inactive)
same,GI50,[6],26.5 µM (inactive)
same,GI50,[7],20.6 µM (inactive)
same,GI50,[8],18.1 µM (inactive)
same,GI50,[9],17.3 µM (inactive)
same,GI50,[10],33.5 µM (inactive)
same,GI50,[11],33.8 µM (inactive)
same,GI50,[12],58.7 µM (inactive)
same,GI50,[13],25.2 µM (inactive)
same,GI50,[14],17.9 µM (inactive)
same,GI50,[15],18.9 µM (inactive)
same,GI50,[16],18.8 µM
same,GI50,[17],30.5 µM (inactive)
same,GI50,[18],> 100 µM (inactive)
same,GI50,[19],30.5 µM (inactive)
same,GI50,[20],22.9 µM (inactive)
same,GI50,[21],16 µM (inactive)
same,GI50,[22],26.3 µM (inactive)
same,GI50,[23],32.9 µM (inactive)
same,GI50,[24],15.9 µM (inactive)
same,GI50,[25],3.66 µM (inactive)
same,GI50,[26],18.2 µM (inactive)
same,GI50,[27],19.3 µM (inactive)
same,GI50,[28],13.6 µM (inactive)
same,GI50,[29],18.7 µM (inactive)
same,GI50,[30],> 100 µM (inactive)
same,GI50,[31],17.3 µM (inactive)
same,GI50,[32],27.1 µM (inactive)
same,GI50,[33],22.1 µM (inactive)
same,GI50,[34],> 100 µM (inactive)
same,GI50,[35],19.4 µM (inactive)
same,GI50,[36],11.1 µM (inactive)
same,GI50,[37],17.9 µM (inactive)
same,GI50,[38],23.8 µM (inactive)
same,GI50,[39],32.5 µM (inactive)
same,GI50,[40],16.7 µM (inactive)
same,GI50,[41],22.6 µM (inactive)
same,GI50,[42],6.03 µM (inactive)
C/C(=N\Nc1nc2ccccc2s1)c1cc2ccccc2cn1,GI50,[1],3.03 µM (inactive)
same,GI50,[2],7.43 µM (inactive)
same,GI50,[3],4.88 µM (inactive)
same,GI50,[43],3.56 µM (inactive)
same,GI50,[4],8.63 µM (inactive)
same,GI50,[5],4.61 µM (inactive)
same,GI50,[6],3.85 µM (inactive)
same,GI50,[44],1.48 µM (inactive)
same,GI50,[7],2.88 µM (inactive)
same,GI50,[8],3.31 µM (inactive)
same,GI50,[9],3.61 µM (inactive)
same,GI50,[10],5.24 µM (inactive)
same,GI50,[11],3.34 µM (inactive)
same,GI50,[45],13.6 µM (inactive)
same,GI50,[12],3.2 µM (inactive)
same,GI50,[13],1.52 µM (inactive)
same,GI50,[14],1.65 µM (inactive)
same,GI50,[15],4.68 µM (inactive)
same,GI50,[16],0.424 µM
same,GI50,[17],0.378 µM (active)
same,GI50,[46],5.42 µM (inactive)
same,GI50,[47],2.81 µM (inactive)
same,GI50,[48],0.27 µM (active)
same,GI50,[18],10.9 µM (inactive)
same,GI50,[19],3.24 µM (inactive)
same,GI50,[20],1.73 µM (inactive)
same,GI50,[21],3.55 µM (inactive)
same,GI50,[49],8.69 µM (inactive)
same,GI50,[22],3.21 µM (inactive)
same,GI50,[23],4.89 µM (inactive)
same,GI50,[50],6.79 µM (inactive)
same,GI50,[24],2.52 µM (inactive)
same,GI50,[25],3.21 µM (inactive)
same,GI50,[26],3.18 µM (inactive)
same,GI50,[27],2.84 µM (inactive)
same,GI50,[51],3.66 µM (inactive)
same,GI50,[28],4.78 µM (inactive)
same,GI50,[29],2.49 µM (inactive)
same,GI50,[30],3.15 µM (inactive)
same,GI50,[52],7.76 µM (inactive)
same,GI50,[31],4.38 µM (inactive)
same,GI50,[32],3.83 µM (inactive)
same,GI50,[33],6.3 µM (inactive)
same,GI50,[34],3.7 µM (inactive)
same,GI50,[53],1.61 µM (inactive)
same,GI50,[35],4.29 µM (inactive)
same,GI50,[54],3.51 µM (inactive)
same,GI50,[36],3.94 µM (inactive)
same,GI50,[55],4.01 µM (inactive)
same,GI50,[37],3.95 µM (inactive)
same,GI50,[38],6.05 µM (inactive)
same,GI50,[56],2.41 µM (inactive)
same,GI50,[39],1.75 µM (inactive)
same,GI50,[40],3.03 µM (inactive)
same,GI50,[41],3.25 µM (inactive)
same,GI50,[42],0.41 µM (active)
